Measurements as given in patent US20230072421A1, “TARGETED RADIOPHARMACEUTICALS FOR THE DIAGNOSIS AND TREATMENT OF PROSTATE CANCER” (Bayer AS, priority 2019, published 2023).

Key:
[1] = system: VCaP cells; experiment: Cell proliferation assay (CellTiter-Glo, 5-day exposure), VCaP; format: cell-based; conditions: 4000 cells/well, Th-227 labelled at 375 kBq/nmol, mean of 1 to 6 experiments
Procedure, shortened: (§1)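 Thorium-227-labelled PSMA small-molecule ligands were tested on prostate cancer lines seeded at 4000 cells/well (VCaP) or 1000 cells/well (22Rv1, C4-2, LNCaP) and incubated overnight at 37 °C, 5% CO2. Viability was read by CellTiter-Glo luminescence at treatment start (sister plates) and after 5-day compound exposure.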

[2] = system: LNCaP cells; experiment: Cell proliferation assay (CellTiter-Glo, 5-day exposure), LNCaP; format: cell-based, human; conditions: LNCaP, 1000 cells/well; Th-227 labelled at 375 kBq/nmol; 5-day exposure; mean of 1 to 6 experiments
Procedure, shortened: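 Triplicate serial dilutions; 375 kBq/nmol Th-227 label; radiochemical purity above 70% unless flagged (50–70%). Overnight attachment precedes dosing, and CTG luminescence is read at d0 and d5.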

[3] = system: LNCaP human prostate cancer cells; experiment: LNCaP xenograft efficacy study (T/C tumor area); format: in vivo, SCID mice
Procedure, shortened: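 SCID mice with testosterone pellet bearing s.c. flank LNCaP xenografts (5×10^6 cells in Matrigel) were treated i.v. with a defined radioactive dose once tumors reached 35-50 mm^2 (n=10/group). Tumor area (caliper, longest diameter × perpendicular) measured 2-3× weekly; T/C ratio calculated from tumor areas when vehicle group closed.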

[4] = system: 22Rv1 cells; experiment: Cell proliferation assay (CellTiter-Glo, 5-day exposure), 22Rv1; format: cell-based; conditions: 22Rv1, 1000 cells/well, Th-227 labelled at 375 kBq/nmol, mean of 1 to 6 experiments
Procedure, shortened: as §1

[5] = Example II, 750 kBq/kg weekly for 5 weeks, day 120
[6] = Example V, day 27 after start of therapy, once 750 kBq/kg

`O=C([O-])CN1CCN(CC(=O)[O-])CCN(CC(=O)NCC2CCC(C(=O)NC(Cc3ccc4ccccc4c3)C(=O)NCCCCC(NC(=O)NC(CCC(=O)O)C(=O)O)C(=O)O)CC2)CCN(CC(=O)[O-])CC1.[227Th+4]` [Example 1-B-227Th, [^227Th]Thorium (3S,10S,14S)-3-[(naphthalen-2-yl)methyl]-1,4,12-trioxo-1-{(1r,4S)-4-[(2-{4,7,10-tris[(carboxy-kappaO)methyl]-1,4,7,10-tetraazacyclododecan-1-yl-kappa^4N^1,N^4,N^7,N^10}acetamido)methyl]cyclohexyl}-2,5,11,13-tetraazahexadecane-10,14,16-tricarboxylate] was tested, and the “Proliferation assay on cancer cell lines by TTCs Default Pivot #3 IC50 [kBq/mL] VCap 4000cells 375kBq/nmol (mean)” value [1] was 0.38 kBq/mL, the “Proliferation assay on cancer cell lines by TTCs Default Pivot #3 IC50 [kBq/mL] LnCap 1000cells 375kBq/nmol (mean)” value [2] was 0.03 kBq/mL and the Mean tumor size [3, 5] was 20 mm^2. For the same compound, the Tumor response [3, 5] was “full response”, the T/Carea ([3]; Example II, day 33 after start of therapy, 750 kBq/kg weekly for 5 weeks) was 0.18 and the T/Carea ([3]; Example III, day 64 after start of therapy, single treatment 1.5 MBq/kg) was 0.51. For the same compound, the T/Carea [3, 6] was 0.29 and the “Proliferation assay on cancer cell lines by TTCs Default Pivot #3 IC50 [kBq/mL] 22Rv1 1000cells 375kBq/nmol (mean)” value [4] was 0.71 kBq/mL.

For `O=C([O-])CN1CCN(CC(=O)[O-])CCN(CC(=O)NCC2CCC(C(=O)NC(Cc3ccc4ccccc4c3)C(=O)NCCCCC(NC(=O)NC(CCC(=O)O)C(=O)O)C(=O)O)CC2)CCN(CC(=O)[O-])CC1.[227Th+4]` [Example 1-B-D-227Th, [^227Th]Thorium-(3S,10S,14R)-3-[(naphthalen-2-yl)methyl]-1,4,12-trioxo-1-{(1r,4S)-4-[(2-{4,7,10-tris[(carboxy-kappaO)methyl]-1,4,7,10-tetraazacyclododecan-1-yl-kappa^4N^1,N^4,N^7,N^10}acetamido)methyl]cyclohexyl}-2,5,11,13-tetraazahexadecane-10,14,16-tricarboxylate], the “Proliferation assay on cancer cell lines by TTCs Default Pivot #3 IC50 [kBq/mL] VCap 4000cells 375kBq/nmol (mean)” value [1] was 4.52 kBq/mL, the “Proliferation assay on cancer cell lines by TTCs Default Pivot #3 IC50 [kBq/mL] LnCap 1000cells 375kBq/nmol (mean)” value [2] was 0.49 kBq/mL and the T/Carea ([3]; Example IV, day 36 after start of therapy, once 1 MBq/kg) was 0.81. The T/Carea [3, 6] was 0.91 and the “Proliferation assay on cancer cell lines by TTCs Default Pivot #3 IC50 [kBq/mL] 22Rv1 1000cells 375kBq/nmol (mean)” value [4] was 1.28 kBq/mL.
